Data published in EP4786485A1, “STRAIGHT CHAIN PEPTIDE COMPOUND AND USE THEREOF” (Shenzhen Zhongge Biological Technology Co., Ltd., priority 2023, dated 2026).
Where a SMILES comes first, the peptide text is derived from it. [ ]: non-standard residue; d: D form. The star is where a group is joined. Biotin = O=C1N[C@H]2[C@H](CS[C@H]2CCCCC(=O)*)N1; Lys(Me3) = C[N+](C)(C)CCCC[C@H](N)C(=O)O; Phe(4-Me) = Cc1ccc(C[C@H](N)C(=O)O)cc1; Palmitoyl = CCCCCCCCCCCCCCCC(=O)*; Hyp = O=C(O)[C@@H]1C[C@@H](O)CN1; βAla = NCCC(=O)O

Tests used:
Format in all cases: cell-based, Human
[1] = test system: Collagen I (type I collagen); experiment: ELISA: effect of increasing the content of Collagen I in fibroblasts; set-up: Effect of increasing the content of Collagen I in the fibroblasts: unit not given here; details: 1 µM, 24 h; for Effect of increasing the content of Collagen I in the fibroblasts: human-derived fibroblasts, ELISA, blank control BC = 35.6; for increase in the content of type I collagen (Collagen I): in words, compared to the BC, fibroblasts
Protocol: (§1) B. Effects of increasing the contents of Collagen I (type I collagen), hyaluronic acid (HA), and Elastin (ELN) in fibroblasts
(§2) Test materials: Human-derived fibroblasts (Guangdong BioCell Biotechnology Co., Ltd., Lot No. Fb20081902), DMEM culture medium (Gibco, 23042301, expiration date 230522), PBS (Solarbio, P1010), TGF-β1 (Peprotech, 230504), Collagen I ELISA Kit (Cusabio, B21025824), Elastin ELISA Kit (Abcam, GR3446070-2), HA ELISA Kit (RD, P325066), CO2 incubator (Thermo, 150I), super-clean bench (AIRTECH, SW-CJ-1F), and microplate reader (BioTek, Epoch).
(§3) Test methods: • 1) Inoculation: After cell resuscitation, the cells were inoculated into 6-well plates when the plating rate reached around 60%, and were incubated overnight in an incubator (37°C, 5% CO2). • 2) Formulation of solutions: The linear peptide compounds in the sample groups, and PC2 (Biotinoyl-GHK, [drawing 69] ) and PC3 ( [drawing 70] ) in the positive control group were all at the concentration of 1 µM, and the test substance working solutions were formulated. • 3) Administration: When the cell plating rate in the 6-well plates reached 40% to 60%, administration was performed at 2 mL per well. Three duplicate wells were set for each group. Incubation was performed in an incubator (37°C, 5% CO2) for 24 h. • 4) ELISA assay: The ELISA assays were performed according to the instructions of the respective ELISA kits, with the detection indicators being effect of increasing the content of Collagen I in the fibroblasts, effect of increasing the content of HA in the fibroblasts, and effect of increasing the content of Elastin in the fibroblasts, respectively.

hyaluronic acid (HA) = experiment: ELISA: effect of increasing the content of HA in fibroblasts; set-up: Effect of increasing the content of HA in the fibroblasts: unit not given here; details: 1 µM, 24 h; for Effect of increasing the content of HA in the fibroblasts: human-derived fibroblasts, ELISA, blank control BC = 1402.44; for increase in the content of hyaluronic acid (HA): in words, compared to the BC, fibroblasts
Protocol: as §1, §2, §3

Elastin (ELN) = experiment: ELISA: effect of increasing the content of Elastin in fibroblasts; set-up: Effect of increasing the content of Elastin in the fibroblasts: unit not given here; details: 1 µM; for Effect of increasing the content of Elastin in the fibroblasts: 24 h incubation, ELISA, blank control (BC) 756.52; for increase in the content of Elastin: in words, compared to the BC, 24 h, fibroblasts
Protocol: as §1, §2, §3

Row | SMILES | Effect of increasing the content of Collagen I in the fibroblasts [1] | increase in the content of type I collagen (Collagen I) [1] | Effect of increasing the content of HA in the fibroblasts (hyaluronic acid (HA)) | increase in the content of hyaluronic acid (HA) (hyaluronic acid (HA)) | Effect of increasing the content of Elastin in the fibroblasts (Elastin (ELN)) | increase in the content of Elastin (Elastin (ELN))
1 | CNC(=O)[C@H](Cc1ccc(C)cc1)NC(=O)[C@H](C)NC(=O)[C@H](CCCCN)NC(=O)[C@H](Cc1c[nH]cn1)NC(=O)CNC(=O)[C@H](CCCC[N+](C)(C)C)NC(C)=O [compound 337] (Ac-[Lys(Me3)]GHKA[Phe(4-Me)]-NHMe) | 95.66 | significant increase | 2421.21 | significant increase | 1320.95 | significant increase
2 | CNC(=O)CNC(=O)[C@H](Cc1c[nH]cn1)NC(=O)[C@H](CCCCN)NC(=O)[C@@H]1CCCN1C(=O)[C@@H]1CCCN1C(=O)[C@@H]1CCCN1C(C)=O [compound 286] (Ac-PPPKHG-NHMe) | 53.24 | significant increase | 2791.21 | significant increase | 1096.59 | significant increase
3 | CCCCCCCCCCCCCCCC(=O)N[C@@H](Cc1ccc(C)cc1)C(=O)N[C@@H](C)C(=O)N[C@@H](CCCCN)C(=O)N[C@@H](Cc1c[nH]cn1)C(=O)NCC(=O)N[C@@H](CCCC[N+](C)(C)C)C(=O)O [compound 415] (Palmitoyl-[Phe(4-Me)]AKHG[Lys(Me3)]-OH) | 85.52 | significant increase | 1570.27 | significant increase | 1010.76 | significant increase
4 | CCCCCCCCCCCCCCCC(=O)N1CCC[C@H]1C(=O)N1CCC[C@H]1C(=O)N1CCC[C@H]1C(=O)NCC(=O)N[C@@H](Cc1c[nH]cn1)C(=O)N[C@@H](CCCCN)C(=O)O [compound 294] (Palmitoyl-PPPGHK-OH) | 91.47 | significant increase | 1761.46 | significant increase | 1037.26 | significant increase
5 | CNC(=O)[C@H](CCCC[N+](C)(C)C)NC(=O)CNC(=O)[C@H](Cc1c[nH]cn1)NC(=O)[C@H](CCCCN)NC(=O)[C@H](Cc1ccc(C)cc1)NC(C)=O [compound 358] (Ac-[Phe(4-Me)]KHG[Lys(Me3)]-NHMe) | 81.27 | significant increase | 1913.78 | significant increase | 1133.42 | significant increase
6 | Cc1ccc(C[C@H](NC(=O)[C@H](CCCCNC(=O)[C@@H]2C[C@@H](O)CN2)NC(=O)[C@H](Cc2c[nH]cn2)NC(=O)CNC(=O)[C@H](CCCC[N+](C)(C)C)NC(=O)CCCC[C@@H]2SC[C@@H]3NC(=O)N[C@@H]32)C(N)=O)cc1 [compound 406] (Biotin-[Lys(Me3)]GHK(Hyp)[Phe(4-Me)]-NH2) | 88.9 | significant increase | 1473.32 | significant increase | 947.33 | significant increase
7 | NCCCC[C@H](NC(=O)[C@H](Cc1c[nH]cn1)NC(=O)CNC(=O)[C@@H]1CCCN1C(=O)[C@@H]1CCCN1C(=O)[C@@H]1CCCN1C(=O)CCCC[C@@H]1SC[C@@H]2NC(=O)N[C@@H]21)C(N)=O [compound 296] (Biotin-PPPGHK-NH2) | 88.1 | significant increase | 1686.42 | significant increase | 930.98 | significant increase
8 | CNC(=O)CNC(=O)[C@H](Cc1c[nH]cn1)NC(=O)[C@H](CCCCN)NC(=O)CCNC(=O)CCNC(C)=O [compound 76] (Ac-[βAla][βAla]KHG-NHMe) | 47.05 | significant increase | 2607.31 | significant increase | 1061.55 | significant increase
9 | CCCCCCCCCCCCCCCC(=O)N[C@@H](CCCC[N+](C)(C)C)C(=O)NCC(=O)N[C@@H](Cc1c[nH]cn1)C(=O)N[C@@H](CCCCNC(=O)[C@@H]1C[C@@H](O)CN1)C(=O)N[C@@H](Cc1ccc(C)cc1)C(=O)O [compound 403] (Palmitoyl-[Lys(Me3)]GHK(Hyp)[Phe(4-Me)]-OH) | 97.51 | significant increase | 2688.75 | significant increase | 928.61 | significant increase
